Values after ≈ are worked out from the molar mass of the structure shown.
Columns and labels:
Bacillus cereus [1] = assay: Antibacterial activity against Bacillus cereus ATCC 11778 after 18 to 24 hr by broth microdilution method; type: functional
[2] = system: Staphylococcus epidermidis; assay: Antibacterial activity against Staphylococcus epidermidis ATCC 12228 after 18 to 24 hr by broth microdilution method; type: functional
Staphylococcus aureus [3] = assay: Antibacterial activity against Staphylococcus aureus ATCC 25923 at 140 ug/disc after 18 to 24 hr by disk diffusion method; type: functional; settings: read-out: DIZ
Candida albicans [4] = assay: Antifungal activity against Candida albicans ATCC 90028 after 18 to 24 hr by broth microdilution method; type: functional
Bacillus cereus [5] = assay: Antibacterial activity against Bacillus cereus ATCC 11778 at 140 ug/disk after 18 to 24 hr by disk diffusion method; type: functional; settings: read-out: DIZ
Pseudomonas fluorescens [6] = assay: Antibacterial activity against Pseudomonas fluorescens ATCC 49838 after 18 to 24 hr by broth microdilution method; type: functional
Pseudomonas aeruginosa [7] = assay: Antibacterial activity against Pseudomonas aeruginosa ATCC 27853 at 140 ug/disk after 18 to 24 hr by disk diffusion method; type: functional; settings: read-out: DIZ
Bacillus subtilis [8] = assay: Antibacterial activity against Bacillus subtilis ATCC 6633 at 140 ug/disk after 18 to 24 hr by disk diffusion method; type: functional; settings: read-out: DIZ
Pseudomonas fluorescens [9] = assay: Antibacterial activity against Pseudomonas fluorescens ATCC 49838 at 140 ug/disk after 18 to 24 hr by disk diffusion method; type: functional; settings: read-out: DIZ
[10] = system: Staphylococcus epidermidis; assay: Antibacterial activity against Staphylococcus epidermidis ATCC 12228 at 140 ug/disk after 18 to 24 hr by disk diffusion method; type: functional; settings: read-out: DIZ
Enterococcus faecalis [11] = assay: Antibacterial activity against Enterococcus faecalis ATCC 29212 after 18 to 24 hr by broth microdilution method; type: functional
Klebsiella pneumoniae [12] = assay: Antibacterial activity against Klebsiella pneumoniae ATCC 13883 after 18 to 24 hr by broth microdilution method; type: functional
Escherichia coli [13] = assay: Antibacterial activity against Escherichia coli ATCC 25922 after 18 to 24 hr by broth microdilution method; type: functional
Candida albicans [14] = assay: Antifungal activity against Candida albicans ATCC 90028 at 140 ug/disk after 18 to 24 hr by disk diffusion method; type: functional; settings: read-out: DIZ
Klebsiella aerogenes [15] = assay: Antibacterial activity against Enterobacter aerogenes ATCC 13048 after 18 to 24 hr by broth microdilution method; type: functional
Bacillus subtilis [16] = assay: Antibacterial activity against Bacillus subtilis ATCC 6633 after 18 to 24 hr by broth microdilution method; type: functional
Pseudomonas aeruginosa [17] = assay: Antibacterial activity against Pseudomonas aeruginosa ATCC 27853 after 18 to 24 hr by broth microdilution method; type: functional
Klebsiella aerogenes [18] = assay: Antibacterial activity against Enterobacter aerogenes ATCC 13048 at 140 ug/disk after 18 to 24 hr by disk diffusion method; type: functional; settings: read-out: DIZ
Enterococcus faecalis [19] = assay: Antibacterial activity against Enterococcus faecalis ATCC 29212 at 140 ug/disk after 18 to 24 hr by disk diffusion method; type: functional; settings: read-out: DIZ
Staphylococcus aureus [20] = assay: Antibacterial activity against Staphylococcus aureus ATCC 25923 after 18 to 24 hr by broth microdilution method; type: functional
Escherichia coli [21] = assay: Antibacterial activity against Escherichia coli ATCC 25922 at 140 ug/disk after 18 to 24 hr by disk diffusion method; type: functional; settings: read-out: DIZ
Klebsiella pneumoniae [22] = assay: Antibacterial activity against Klebsiella pneumoniae ATCC 13883 at 140 ug/disk after 18 to 24 hr by disk diffusion method; type: functional; settings: read-out: DIZ
Klebsiella pneumoniae [23] = assay: Antibacterial activity against Klebsiella pneumoniae ATCC 13883 at 30 ug/disk after 18 to 24 hr by disk diffusion method; type: functional; settings: read-out: DIZ
Candida albicans [24] = assay: Antifungal activity against Candida albicans ATCC 90028 at 30 ug/disk after 18 to 24 hr by disk diffusion method; type: functional; settings: read-out: DIZ
Enterococcus faecalis [25] = assay: Antibacterial activity against Enterococcus faecalis ATCC 29212 at 30 ug/disk after 18 to 24 hr by disk diffusion method; type: functional; settings: read-out: DIZ
Pseudomonas fluorescens [26] = assay: Antibacterial activity against Pseudomonas fluorescens ATCC 49838 at 30 ug/disk after 18 to 24 hr by disk diffusion method; type: functional; settings: read-out: DIZ
Pseudomonas aeruginosa [27] = assay: Antibacterial activity against Pseudomonas aeruginosa ATCC 27853 at 30 ug/disk after 18 to 24 hr by disk diffusion method; type: functional; settings: read-out: DIZ
Bacillus subtilis [28] = assay: Antibacterial activity against Bacillus subtilis ATCC 6633 at 30 ug/disk after 18 to 24 hr by disk diffusion method; type: functional; settings: read-out: DIZ
Klebsiella aerogenes [29] = assay: Antibacterial activity against Enterobacter aerogenes ATCC 13048 at 30 ug/disk after 18 to 24 hr by disk diffusion method; type: functional; settings: read-out: DIZ
Bacillus cereus [30] = assay: Antibacterial activity against Bacillus cereus ATCC 11778 at 30 ug/disk after 18 to 24 hr by disk diffusion method; type: functional; settings: read-out: DIZ
Staphylococcus aureus [31] = assay: Antibacterial activity against Staphylococcus aureus ATCC 25923 at 30 ug/disk after 18 to 24 hr by disk diffusion method; type: functional; settings: read-out: DIZ
[32] = system: Staphylococcus epidermidis; assay: Antibacterial activity against Staphylococcus epidermidis ATCC 12228 at 30 ug/disk after 18 to 24 hr by disk diffusion method; type: functional; settings: read-out: DIZ
Escherichia coli [33] = assay: Antibacterial activity against Escherichia coli ATCC 25922 at 30 ug/disk after 18 to 24 hr by disk diffusion method; type: functional; settings: read-out: DIZ
Pseudomonas fluorescens [34] = assay: Antibacterial activity against Pseudomonas fluorescens ATCC 49838 at 40 ug/disk after 18 to 24 hr by disk diffusion method; type: functional; settings: read-out: DIZ
Staphylococcus aureus [35] = assay: Antibacterial activity against Staphylococcus aureus ATCC 25923 at 40 ug/disc after 18 to 24 hr by disk diffusion method; type: functional; settings: read-out: DIZ
Klebsiella pneumoniae [36] = assay: Antibacterial activity against Klebsiella pneumoniae ATCC 13883 at 40 ug/disk after 18 to 24 hr by disk diffusion method; type: functional; settings: read-out: DIZ
[37] = system: Staphylococcus epidermidis; assay: Antibacterial activity against Staphylococcus epidermidis ATCC 12228 at 40 ug/disk after 18 to 24 hr by disk diffusion method; type: functional; settings: read-out: DIZ
Pseudomonas aeruginosa [38] = assay: Antibacterial activity against Pseudomonas aeruginosa ATCC 27853 at 40 ug/disk after 18 to 24 hr by disk diffusion method; type: functional; settings: read-out: DIZ
Bacillus cereus [39] = assay: Antibacterial activity against Bacillus cereus ATCC 11778 at 40 ug/disk after 18 to 24 hr by disk diffusion method; type: functional; settings: read-out: DIZ
Candida albicans [40] = assay: microbe, parasite or virus in culture; settings: ATCC 90028, read-out: DIZ
Description: Antifungal activity against Candida albicans ATCC 90028 at 40 ug/disk after 18 to 24 hr by disk diffusion method

Bacillus subtilis [41] = assay: Antibacterial activity against Bacillus subtilis ATCC 6633 at 40 ug/disk after 18 to 24 hr by disk diffusion method; type: functional; settings: read-out: DIZ
Enterococcus faecalis [42] = assay: Antibacterial activity against Enterococcus faecalis ATCC 29212 at 40 ug/disk after 18 to 24 hr by disk diffusion method; type: functional; settings: read-out: DIZ
Klebsiella aerogenes [43] = assay: Antibacterial activity against Enterobacter aerogenes ATCC 13048 at 40 ug/disk after 18 to 24 hr by disk diffusion method; type: functional; settings: read-out: DIZ
Escherichia coli [44] = assay: Antibacterial activity against Escherichia coli ATCC 25922 at 40 ug/disk after 18 to 24 hr by disk diffusion method; type: functional; settings: read-out: DIZ

Structure (SMILES)	MIC (Bacillus cereus [1]) [µg/mL]	MIC [2] [µg/mL]	zone of inhibition at 140 µg/disc (Staphylococcus aureus [3]) [mm]	MIC (Candida albicans [4]) [µg/mL]	zone of inhibition at 140 µg/disc (Bacillus cereus [5]) [mm]	MIC (Pseudomonas fluorescens [6]) [µg/mL]	zone of inhibition at 140 µg/disc (Pseudomonas aeruginosa [7]) [mm]	zone of inhibition at 140 µg/disc (Bacillus subtilis [8]) [mm]	zone of inhibition at 140 µg/disc (Pseudomonas fluorescens [9]) [mm]	zone of inhibition at 140 µg/disc [10] [mm]	MIC (Enterococcus faecalis [11]) [µg/mL]	MIC (Klebsiella pneumoniae [12]) [µg/mL]	MIC (Escherichia coli [13]) [µg/mL]	zone of inhibition at 140 µg/disc (Candida albicans [14]) [mm]	MIC (Klebsiella aerogenes [15]) [µg/mL]	MIC (Bacillus subtilis [16]) [µg/mL]	MIC (Pseudomonas aeruginosa [17]) [µg/mL]	zone of inhibition at 140 µg/disc (Klebsiella aerogenes [18]) [mm]	zone of inhibition at 140 µg/disc (Enterococcus faecalis [19]) [mm]	MIC (Staphylococcus aureus [20]) [µg/mL]	further results
C/C(=N\N(C)S(=O)(=O)c1ccccc1)c1ccccc1O	500 (≈ 1640 µM)	500 (≈ 1640 µM)	10	500 (≈ 1640 µM)	10	1000 (≈ 3290 µM)	5	9	11	12	1000 (≈ 3290 µM)	1000 (≈ 3290 µM)	1000 (≈ 3290 µM)	12	1000 (≈ 3290 µM)	500 (≈ 1640 µM)	1000 (≈ 3290 µM)	5	9	500 (≈ 1640 µM)	zone of inhibition at 140 µg/disc (Escherichia coli [21]): 11 mm; zone of inhibition at 140 µg/disc (Klebsiella pneumoniae [22]): 6 mm
COc1cc(Cc2cnc(N)nc2N)cc(OC)c1OC [TRIMETHOPRIM]	–	–	–	–	–	1 (≈ 3.44 µM)	–	–	–	–	0.5 (≈ 1.72 µM)	1 (≈ 3.44 µM)	–	–	1 (≈ 3.44 µM)	1 (≈ 3.44 µM)	1 (≈ 3.44 µM)	–	–	1 (≈ 3.44 µM)	zone of inhibition at 30 µg/disc (Klebsiella pneumoniae [23]): 0 mm; zone of inhibition at 30 µg/disc (Candida albicans [24]): 0 mm; zone of inhibition at 30 µg/disc (Enterococcus faecalis [25]): 27 mm; zone of inhibition at 30 µg/disc (Pseudomonas fluorescens [26]): 0 mm; zone of inhibition at 30 µg/disc (Pseudomonas aeruginosa [27]): 31 mm; zone of inhibition at 30 µg/disc (Bacillus subtilis [28]): 20 mm; zone of inhibition at 30 µg/disc (Klebsiella aerogenes [29]): 28 mm; zone of inhibition at 30 µg/disc (Bacillus cereus [30]): 0 mm; zone of inhibition at 30 µg/disc (Staphylococcus aureus [31]): 37 mm; zone of inhibition at 30 µg/disc [32]: 29 mm; zone of inhibition at 30 µg/disc (Escherichia coli [33]): 0 mm
CN(N)S(=O)(=O)c1ccccc1	125 (≈ 671 µM)	125 (≈ 671 µM)	19	> 2000	15	62.5 (≈ 336 µM)	19	16	22	14	250 (≈ 1340 µM)	125 (≈ 671 µM)	125 (≈ 671 µM)	0	125 (≈ 671 µM)	125 (≈ 671 µM)	62.5 (≈ 336 µM)	16	15	125 (≈ 671 µM)	zone of inhibition at 140 µg/disc (Escherichia coli [21]): 18 mm; zone of inhibition at 140 µg/disc (Klebsiella pneumoniae [22]): 17 mm
CN(/N=C/c1c(O)ccc2ccccc12)S(=O)(=O)c1ccccc1	250 (≈ 734 µM)	500 (≈ 1470 µM)	19	500 (≈ 1470 µM)	26	250 (≈ 734 µM)	25	28	26	16	500 (≈ 1470 µM)	250 (≈ 734 µM)	500 (≈ 1470 µM)	16	500 (≈ 1470 µM)	250 (≈ 734 µM)	250 (≈ 734 µM)	18	17	500 (≈ 1470 µM)	zone of inhibition at 140 µg/disc (Escherichia coli [21]): 17 mm; zone of inhibition at 140 µg/disc (Klebsiella pneumoniae [22]): 23 mm
Clc1ccc(COC(Cn2ccnc2)c2ccc(Cl)cc2Cl)c(Cl)c1 (stereo unspecified) [MICONAZOLE]	–	–	–	0.15 (≈ 0.36 µM)	–	–	–	–	–	–	–	–	–	–	–	–	–	–	–	–	zone of inhibition at 40 µg/disc (Pseudomonas fluorescens [34]): 0 mm; zone of inhibition at 40 µg/disc (Staphylococcus aureus [35]): 0 mm; zone of inhibition at 40 µg/disc (Klebsiella pneumoniae [36]): 0 mm; zone of inhibition at 40 µg/disc [37]: 0 mm; zone of inhibition at 40 µg/disc (Pseudomonas aeruginosa [38]): 0 mm; zone of inhibition at 40 µg/disc (Bacillus cereus [39]): 0 mm; zone of inhibition at 40 µg/disc (Candida albicans [40]): 26 mm; zone of inhibition at 40 µg/disc (Bacillus subtilis [41]): 0 mm; zone of inhibition at 40 µg/disc (Enterococcus faecalis [42]): 0 mm; zone of inhibition at 40 µg/disc (Klebsiella aerogenes [43]): 0 mm; zone of inhibition at 40 µg/disc (Escherichia coli [44]): 0 mm

From ChEMBL document CHEMBL3044670, “Aromatic sulfonyl hydrazides and sulfonyl hydrazones: antimicrobial activity and physical properties” (2013)
